According to patent publication US7229630B2, “Stabilized formulations of alpha adrenergic receptor antagonists and the uses thereof” (Novalar Pharmaceuticals, Inc., priority 2002, dated 2007):
Counter-ions that a name gives are not always drawn.

Assays:
human subjects = test: Reversal of local anesthesia (polocaine with levonordefrin) by LARA vs saline, bilateral injection; type: in vivo; details: three subjects, 1.6 ml of 0.05 mg/ml phentolamine mesylate
Protocol: An injection of the physiological saline vehicle (without phentolamine mesylate) served as the control. […] This was followed by injection of the phentolamine mesylate containing local anesthetic reversal agent (LARA) into one side of the oral cavity, and injection of the saline vehicle (control) solution into the opposite side of the oral cavity. The time to reversal of the local anesthetic effect on both sides was then recorded to determine whether there is a difference between the two sides.
The local anesthetic used was 2% polocaine (mepivacaine hydrochloride) with levonordefrin (1:20,000=0.05 mg/ml) (levonordefrin injection, USP) (Astra USA, Inc., Westborough, Mass. 01581). Levonordefrin is a sympathomimetic amine with a pharmacological profile similar to that of epinephrine, but with a lower potency.
Three healthy, male human subjects, age 34–50, volunteered to have local anesthetic injected in the mouth bilaterally under the lip in an easily repeatable location. The exact time of each injection was recorded. The position chosen was above (apical) the prominence of the root of the upper cuspid teeth. This is a common site selected to numb the cuspids, lateral incisors and upper lip. The volume of the local anesthetic injected was 1.7+0.1 ml on each side of the mouth. […]

[1] = Effect of additives on stability at 60° C. (HPLC); type: physicochemical; details: for Rate Constant: zero-order
From the text: The drug is monitored at a detection wavelength of 232 nm.
The additives in this study are selected from five groups of injectable excipients namely, tonicity modifiers (NaCl and d-mannitol), metal chelators (EDTA), antioxidants (sodium metabisulfite), complexing agents (α-cyclodextrin and niacinamide) and solvents (glycerol and polypropylene glycol). A tonicity modifier is required for adjusting the phentolamine mesylate solution to isotonic. […] Complexing agents were applied in the hope that a possible formation of an inclusion complex (by α-cyclodextrin) or stacking complex (by niacinamide) with phentolamine would modify the rate of hydrolytic degradation of the drug substance. Solvents were added to reduce the dielectric constant of the vehicle and were intended to slow the rate of degradation due to solvent polarity.
The pH value of the solutions was readjusted to pH 3.5, as required.
The 25% glycerol (25 g in 100 ml total volume with water) and 25% polypropylene glycol (25 g in 100 ml total volume with water) solutions had their buffer strength adjusted by addition of acetic acid followed by addition of 2 N NaOH for pH adjustment to pH 3.5 followed by addition of the drug to 0.1 mg/ml.
All samples were placed in 10 ml glass serum vials, stoppered with rubber closures with an inert coating (Daikyo Flurotec by WEST Pharmaceutical), and sealed with flip-top caps after sampling. Vials were placed at 60° C. after the weights were recorded.
Sampling occurred at the initial time point and on days 2, 7, and 14. Vials were weighed, sampled, sealed, re-weighed, and replaced under the selected storage condition until testing at the subsequent time point. Records indicate no significant weight loss during storage.

[2] = test system: healthy adult volunteer subjects; test: Dose range study of reversal of local anesthesia after maxillary infiltration; type: in vivo, human
Protocol: Four groups of eight healthy adult volunteer subjects were given an infiltration of the lateral incisor using one 1.8 ml cartridge of lidocaine 2% with epinephrine 1:100,000. […] Subjects palpated their upper lip, nose, and teeth every five minutes for the next five hours after injections.

[3] = EDTA 0.7 mg/ml, sodium acetate pH 3.5, 60° C., Day 14
[4] = Glycerol 25% w/v, sodium acetate pH 3.5, 60° C., Day 7
[5] = NaCl 50 mg/ml, sodium acetate pH 3.5, 60° C., Day 0
[6] = NaCl 50 mg/ml, sodium acetate pH 3.5, 60° C., Day 2
[7] = NaCl 50 mg/ml, sodium acetate pH 3.5, 60° C., Day 7
[8] = NaCl 50 mg/ml, sodium acetate pH 3.5, 60° C., Day 14
[9] = Niacinamide 50 mg/ml, sodium acetate pH 3.5, 60° C., Day 0
[10] = Niacinamide 50 mg/ml, sodium acetate pH 3.5, 60° C., Day 2
[11] = Niacinamide 50 mg/ml, sodium acetate pH 3.5, 60° C., Day 7
[12] = Niacinamide 50 mg/ml, sodium acetate pH 3.5, 60° C., Day 14
[13] = No additive, pH 3.5, 60° C., Day 0
[14] = No additive, pH 3.5, 60° C., Day 2
[15] = No additive, pH 3.5, 60° C., Day 7
[16] = No additive, pH 3.5, 60° C., Day 14
[17] = Sodium metabisulfite 0.5 mg/ml, sodium acetate pH 3.5, 60° C., Day 0
[18] = Sodium metabisulfite 0.5 mg/ml, sodium acetate pH 3.5, 60° C., Day 7
[19] = Sodium metabisulfite 0.5 mg/ml, sodium acetate pH 3.5, 60° C., Day 14
[20] = d-Mannitol 40 mg/ml, sodium acetate pH 3.5, 60° C., Day 0
[21] = d-Mannitol 40 mg/ml, sodium acetate pH 3.5, 60° C., Day 2
[22] = d-Mannitol 40 mg/ml, sodium acetate pH 3.5, 60° C., Day 7
[23] = d-Mannitol 40 mg/ml, sodium acetate pH 3.5, 60° C., Day 14

Phentolamine Purity ([1]; EDTA 0.7 mg/ml, sodium acetate pH 3.5, 60° C., Day 0): 99 % Peak Area | Phentolamine Purity ([1]; EDTA 0.7 mg/ml, sodium acetate pH 3.5, 60° C., Day 2): 99 % Peak Area | Phentolamine Purity ([1]; EDTA 0.7 mg/ml, sodium acetate pH 3.5, 60° C., Day 7): 99 % Peak Area | Phentolamine Concentration [1, 3]: 99 µg/mL | Phentolamine Purity [1, 3]: 98 % Peak Area | Phentolamine Purity ([1]; Glycerol 25% w/v, sodium acetate pH 3.5, 60° C., Day 0): 98 % Peak Area | Phentolamine Purity ([1]; Glycerol 25% w/v, sodium acetate pH 3.5, 60° C., Day 2): 98 % Peak Area | Phentolamine Concentration [1, 4]: 120 µg/mL | Phentolamine Purity [1, 4]: 93 % Peak Area | Phentolamine Purity ([1]; Glycerol 25% w/v, sodium acetate pH 3.5, 60° C., Day 14): 94 % Peak Area | Phentolamine Concentration [1, 5]: 94 µg/mL | Phentolamine Purity [1, 5]: 94 % Peak Area | Phentolamine Concentration [1, 6]: 98 µg/mL | Phentolamine Purity [1, 6]: 99 % Peak Area | Phentolamine Concentration [1, 7]: 80 µg/mL | Phentolamine Purity [1, 7]: 89 % Peak Area | Phentolamine Concentration [1, 8]: 74 µg/mL | Phentolamine Purity [1, 8]: 85 % Peak Area | Phentolamine Concentration [1, 9]: 90 µg/mL | Phentolamine Purity [1, 9]: 99 % Peak Area | Phentolamine Concentration [1, 10]: 90 µg/mL | Phentolamine Purity [1, 10]: 100 % Peak Area | Phentolamine Concentration [1, 11]: 78 µg/mL | Phentolamine Purity [1, 11]: 93 % Peak Area | Phentolamine Concentration [1, 12]: 92 µg/mL | Phentolamine Purity [1, 12]: 90 % Peak Area | Phentolamine Concentration [1, 13]: 90 µg/mL | Phentolamine Purity [1, 13]: 99 % Peak Area | Phentolamine Concentration [1, 14]: 92 µg/mL | Phentolamine Purity [1, 14]: 98 % Peak Area | Phentolamine Concentration [1, 15]: 82 µg/mL | Phentolamine Purity [1, 15]: 98 % Peak Area | Phentolamine Concentration [1, 16]: 77 µg/mL | Phentolamine Purity [1, 16]: 97 % Peak Area | Phentolamine Purity ([1]; Polypropylene glycol 25% w/v, sodium acetate pH 3.5, 60° C., Day 0): 93 % Peak Area | Phentolamine Purity ([1]; Polypropylene glycol 25% w/v, sodium acetate pH 3.5, 60° C., Day 2): 97 % Peak Area | Phentolamine Purity ([1]; Polypropylene glycol 25% w/v, sodium acetate pH 3.5, 60° C., Day 7): 93 % Peak Area | Phentolamine Purity ([1]; Polypropylene glycol 25% w/v, sodium acetate pH 3.5, 60° C., Day 14): 90 % Peak Area | Phentolamine Concentration [1, 17]: 97 µg/mL | Phentolamine Purity [1, 17]: 97 % Peak Area | Phentolamine Purity ([1]; Sodium metabisulfite 0.5 mg/ml, sodium acetate pH 3.5, 60° C., Day 2): 99 % Peak Area | Phentolamine Concentration [1, 18]: 84 µg/mL | Phentolamine Purity [1, 18]: 95 % Peak Area | Phentolamine Concentration [1, 19]: 74 µg/mL | Phentolamine Purity [1, 19]: 92 % Peak Area | Phentolamine Concentration [1, 20]: 98 µg/mL | Phentolamine Purity [1, 20]: 96 % Peak Area | Phentolamine Concentration [1, 21]: 96 µg/mL | Phentolamine Purity [1, 21]: 97 % Peak Area | Phentolamine Concentration [1, 22]: 98 µg/mL | Phentolamine Purity [1, 22]: 96 % Peak Area | Phentolamine Concentration [1, 23]: 91 µg/mL | Phentolamine Purity [1, 23]: 97 % Peak Area | impact of additive on stability ([1]; d-Mannitol and disodium EDTA, based on the rate constant, 60° C.): improve stability | impact of additive on recovery vs no-additive control ([1]; sodium metabisulfite, NaCl, glycerol, polypropylene glycol and niacinamide, 60° C.): negative impact on the recovery | Phentolamine Purity ([1]; α-Cyclodextran 50 mg/ml, sodium acetate pH 3.5, 60° C., Day 0): 98 % Peak Area | Phentolamine Purity ([1]; α-Cyclodextran 50 mg/ml, sodium acetate pH 3.5, 60° C., Day 2): 99 % Peak Area | Phentolamine Purity ([1]; α-Cyclodextran 50 mg/ml, sodium acetate pH 3.5, 60° C., Day 7): 98 % Peak Area | Phentolamine Purity ([1]; α-Cyclodextran 50 mg/ml, sodium acetate pH 3.5, 60° C., Day 14): 98 % Peak Area | Phentolamine Concentration ([1]; α-Cyclodextrin 50 mg/ml, sodium acetate pH 3.5, 60° C., Day 2): 99 µg/mL | Phentolamine Concentration ([1]; α-Cyclodextrin 50 mg/ml, sodium acetate pH 3.5, 60° C., Day 7): 96 µg/mL | Phentolamine Concentration ([1]; α-Cyclodextrin 50 mg/ml, sodium acetate pH 3.5, 60° C., Day 14): 94 µg/mL | impact of additive on stability ([1]; α-cyclodextrin, based on purity value, 60° C.): negligible | electrocardiogram ([2]; 0.02 mg, 0.08 mg, 0.4 mg in 1.8 ml): no abnormalities
SMILES: Cc1ccc(N(CC2=NCCN2)c2cccc(O)c2)cc1 [Phentolamine Mesylate, phentolamine mesylate]
side-effects (human subjects): no side-effects of any kind were noted | Rate Constant ([1]; EDTA 0.7 mg/ml, sodium acetate pH 3.5, 60° C.): 0.438 µg/mL/day | Rate Constant ([1]; Glycerol 25% w/v, sodium acetate pH 3.5, 60° C.): 0.726 µg/mL/day | Rate Constant ([1]; NaCl 50 mg/ml, sodium acetate pH 3.5, 60° C.): 1.663 µg/mL/day | Rate Constant ([1]; Niacinamide 50 mg/ml, sodium acetate pH 3.5, 60° C.): -0.026 µg/mL/day | Rate Constant ([1]; No additive, pH 3.5, 60° C.): 1.027 µg/mL/day | Rate Constant ([1]; Polypropylene glycol 25% w/v, sodium acetate pH 3.5, 60° C.): 1.019 µg/mL/day | Rate Constant ([1]; Sodium metabisulfite 0.5 mg/ml, sodium acetate pH 3.5, 60° C.): 1.903 µg/mL/day | Rate Constant ([1]; d-Mannitol 40 mg/ml, sodium acetate pH 3.5, 60° C.): 0.416 µg/mL/day | Rate Constant ([1]; α-Cyclodextrin 50 mg/ml, sodium acetate pH 3.5, 60° C.): 0.501 µg/mL/day | Adverse events ([2]; 0.02 mg, 0.08 mg, 0.4 mg in 1.8 ml, vs placebo): few and no differences were noted between the active and placebo groups | duration of anesthesia ([2]; all doses tested (0.02 mg, 0.08 mg, 0.4 mg in 1.8 ml), 40 minutes after lidocaine 2% with epinephrine 1:100,000, vs saline, each measured tissue): significantly (p<0.01) reduced
